Measured values as given in US11919858B2, “Aminonapthoquinone compounds and pharmaceutical composition for blocking ubiquitination-proteasome system in diseases” (Calgent Biotechnology Co., Ltd., priority 2015, dated 2024).

What was measured:
Hep 3B = test: Growth inhibition assay; format: cell-based; conditions: Homo sapiens, Hep3B; read-out: Hep3B GI50 (μM) Mean ± S.E.
Procedure: (§1) Cells were seeded in 96-well plastic plates and exposed to MPT0L056 for 48 hours. Cell viability was assessed using the 3-(4,5-dimethylthiazol-2-yl)-2,5-diphenyltetrazolium bromide assay. Growth inhibition was expressed as the percentage of surviving cells in drug-treated versus DMSO-treated control cells.
(§2) The compounds of the invention were subjected to growth inhibition assay.

MDA-MB-231 = test: Growth inhibition assay; format: cell-based; conditions: Homo sapiens, MDA-MB-231; read-out: MDA-MB-231 GI50 (μM) Mean ± S.E.
Procedure: as §1, §2

HL-60 = test: Growth inhibition assay; format: cell-based; conditions: HL-60; for IC50: Homo sapiens, read-out: HL-60 IC50 (μM) Mean ± S.E.
Procedure: as §1, §2

HCT-116 = test: Growth inhibition assay; format: cell-based; conditions: Homo sapiens, HCT-116; read-out: HCT-116 GI50 (μM) Mean ± S.E.
Procedure: as §1, §2

[1] = tested on: human A2780 ovarian adenocarcinoma; test: Human A2780 ovarian cancer xenograft in female nude mice (TMU-A2780-e0001); format: in vivo; conditions: cisplatin 5 mg/kg QWK to end
[2] = tested on: human RPMI8226 multiple myeloma; test: Human RPMI8226 multiple myeloma xenograft in female nude mice (TMU-RPMI8226-e0001); format: in vivo; conditions: SAHA 100 mg/kg once every day
Description: The 42-day study utilized five groups of mice (n=6) bearing established human PRMI8226 multiple myeloma with mean volumes of ˜85 mm^3 on D1. […] (FIG. 3).

Row | Compound | GI50 (MDA-MB-231) [µM] | IC50 (HL-60) [µM] | GI50 (HCT-116) [µM] | HL-60 IC50 (μM) Mean ± S.E. (HL-60) | GI50 (Hep 3B) [µM] | antitumor activity [1] | antitumor activity [2] | mice with complete regression [2]
1 | Nc1ccn(C(=O)c2ccc(CNC3=C(Cl)C(=O)c4ccccc4C3=O)cc2)n1 [MPT0L094, 2-(4-(3-amino-1H-pyrazole-1-carbonyl)benzylamino)-3-chloronaphthalene-1,4-dione] | 10 to 30 | – | 10 to 30 | 110~30 μM | 10 to 30 | – | – | –
2 | N.N.[Cl][Pt][Cl] [cisplatin, reference compound] | – | – | – | – | – | showed antitumor activity | – | –
3 | O=C(Nc1cnccn1)c1ccc(CNC2=C(Cl)C(=O)c3ccccc3C2=O)cc1 [MPT0L076, 4-(((3-chloro-1,4-dioxo-1,4-dihydronaphthalen-2-yl)amino)methyl)-N-(pyrazin-2-yl)benzamide] | 9.19 ± 0.4 | 7.27 ± 2.98 | 5.52 ± 0.66 | – | 8.77 ± 0.9 | – | – | –
4 | O=C(CCCCCCC(=O)Nc1ccccc1)NO [SAHA, reference compound] | – | – | – | – | – | – | also showed antitumor activity | one of six
5 | Cc1cnc(NC(=O)c2ccc(CNC3=C(Cl)C(=O)c4ccccc4C3=O)cc2)s1 [MPT0L098, 4-((3-chloro-1,4-dioxo-1,4-dihydronaphthalen-2-ylamino)methyl)-N-(5-methylthiazol-2-yl)benzamide] | 10 to 30 | 7.06 ± 0.73 | 10 to 30 | – | 10 to 30 | – | – | –
6 | O=C(Nc1ccncc1[N+](=O)[O-])c1ccc(CNC2=C(Cl)C(=O)c3ccccc3C2=O)cc1 [MPT0L103, 4-((3-chloro-1,4-dioxo-1,4-dihydronaphthalen-2-ylamino)methyl)-N-(3-nitropyridin-4-yl)benzamide] | 10 to 30 | 5.42 ± 0.7 | 6.12 ± 1.17 | – | 10 to 30 | – | – | –
7 | O=C(Nc1ccccn1)c1ccc(CNC2=C(Cl)C(=O)c3ccccc3C2=O)cc1 [MPT0L018, 4-(((3-chloro-1,4-dioxo-1,4-dihydronaphthalen-2-yl)amino)methyl)-N-(pyridin-2-yl)benzamide] | 10 to 30 | 10 to 30 | 10 to 30 | – | 10 to 30 | – | – | –
8 | O=C(Nc1nc2ccccc2[nH]1)c1ccc(CNC2=C(Cl)C(=O)c3ccccc3C2=O)cc1 [MPT0L086, N-(1H-benzo[d]imidazol-2-yl)-4-(((3-chloro-1,4-dioxo-1,4-dihydronaphthalen-2-yl)amino)methyl)benzamide] | 8.88 ± 1.04 | 10 to 30 | 10 to 30 | – | 10 to 30 | – | – | –

Second part, led by results:

Row | GI50 (MDA-MB-231) [µM] | IC50 (HL-60) [µM] | GI50 (HCT-116) [µM] | HL-60 IC50 (μM) Mean ± S.E. (HL-60) | Compound | GI50 (Hep 3B) [µM] | antitumor activity [1] | antitumor activity [2] | mice with complete regression [2]
9 | 10 to 30 | 7.31 ± 1.94 | 10 to 30 | – | O=C(Nc1cnc2[nH]ncc2c1)c1ccc(CNC2=C(Cl)C(=O)c3ccccc3C2=O)cc1 [MPT0L120, 4-((3-chloro-1,4-dioxo-1,4-dihydronaphthalen-2-ylamino)methyl)-N-(1H-pyrazolo[3,4-b]pyridin-5-yl)benzamide] | 10 to 30 | – | – | –
10 | 10 to 30 | 2.68 ± 0.17 | 10 to 30 | – | Cn1ccc2c(NC(=O)c3ccc(CNC4=C(Cl)C(=O)c5ccccc5C4=O)cc3)ncnc21 [MPT0L121, 4-((3-chloro-1,4-dioxo-1,4-dihydronaphthalen-2-ylamino)methyl)-N-(7-methyl-711-pyrrolo[2,3-d]pyrimidin-4-yl)benzamide] | 10 to 30 | – | – | –
11 | 10 to 30 | 4.06 ± 1.82 | 10 to 30 | – | O=C(Nc1cccc2[nH]ccc12)c1ccc(CNC2=C(Cl)C(=O)c3ccccc3C2=O)cc1 [MPT0L116, 4-((3-chloro-1,4-dioxo-1,4-dihydronaphthalen-2-ylamino)methyl)-N-(1H-indol-4-yl)benzamide] | 10 to 30 | – | – | –
12 | 10 to 30 | 10 to 30 | 10 to 30 | – | O=C(Nc1cnc2[nH]ccc2c1)c1ccc(CNC2=C(Cl)C(=O)c3ccccc3C2=O)cc1 [MPT0L119, 4-((3-chloro-1,4-dioxo-1,4-dihydronaphthalen-2-ylamino)methyl)-N-(1H-pyrrolo[2,3-b]pyridin-5-yl)benzamide] | 10 to 30 | – | – | –
13 | 10 to 30 | 10 to 30 | 10 to 30 | – | Cc1cc2cc(NC(=O)c3ccc(CNC4=C(Cl)C(=O)c5ccccc5C4=O)cc3)ccc2[nH]1 [MPT0L114, 4-((3-chloro-1,4-dioxo-1,4-dihydronaphthalen-2-ylamino)methyl)-N-(2-methyl-1H-indol-5-yl)benzamide] | 10 to 30 | – | – | –
14 | 10 to 30 | 8.92 ± 0.39 | 10 to 30 | – | O=C(Nc1ccc2[nH]ccc2c1)c1ccc(CNC2=C(Cl)C(=O)c3ccccc3C2=O)cc1 [MPT0L113, 4-((3-chloro-1,4-dioxo-1,4-dihydronaphthalen-2-ylamino)methyl)-N-(1H-indol-5-yl)benzamide] | 10 to 30 | – | – | –
15 | 8.12 ± 1.32 | 2.68 ± 0.03 | 10 to 30 | – | Cc1cc(NC(=O)c2ccc(CNC3=C(Cl)C(=O)c4ccccc4C3=O)cc2)c2ccccc2n1 [MPT0L112, 4-((3-chloro-1,4-dioxo-1,4-dihydronaphthalen-2-ylamino)methyl)-N-(2-methylquinolin-4-yl)benzamide] | 10 to 30 | – | – | –
16 | 10 to 30 | 2.23 ± 0.27 | 10 to 30 | – | O=C(Nc1cccc2ncccc12)c1ccc(CNC2=C(Cl)C(=O)c3ccccc3C2=O)cc1 [MPT0L111, 4-((3-chloro-1,4-dioxo-1,4-dihydronaphthalen-2-ylamino)methyl)-N-(quinolin-5-yl)benzamide] | 10 to 30 | – | – | –
17 | 10 to 30 | 7.39 ± 3.49 | 10 to 30 | – | O=C(Nc1ccc2cn[nH]c2c1)c1ccc(CNC2=C(Cl)C(=O)c3ccccc3C2=O)cc1 [MPT0L118, 4-((3-chloro-1,4-dioxo-1,4-dihydronaphthalen-2-ylamino)methyl)-N-(1H-indazol-6-yl)benzamide] | 10 to 30 | – | – | –
18 | 10 to 30 | 7.93 ± 1.14 | 10 to 30 | – | O=C(Nc1cnc2ccccc2c1)c1ccc(CNC2=C(Cl)C(=O)c3ccccc3C2=O)cc1 [MPT0L110, 4-((3-chloro-1,4-dioxo-1,4-dihydronaphthalen-2-ylamino)methyl)-N-(quinolin-3-yl)benzamide] | 10 to 30 | – | – | –
